From publication PMC3165090 (Journal of medicinal chemistry, 2011)
Where a name gives a salt, the structure may show the parent alone.

Tests used:
melanoma UACC-62 = experiment: NCI screen cytotoxicity, melanoma UACC-62; format: cell-based; details: Homo sapiens, UACC-62, 48 h, read-out: cytotoxicity (GI50) melanoma UACC-62
prostate DU-145 = experiment: NCI screen cytotoxicity, prostate DU-145; format: cell-based; details: Homo sapiens, DU-145, 48 h, read-out: cytotoxicity (GI50) prostate DU-145
lung HOP-62 = experiment: NCI screen cytotoxicity, lung HOP-62; format: cell-based; details: Homo sapiens, HOP-62, 48 h, read-out: cytotoxicity (GI50) lung HOP-62
renal SN12C = experiment: NCI screen cytotoxicity, renal SN12C; format: cell-based; details: Homo sapiens, 48 h, read-out: cytotoxicity (GI50) renal SN12C
colon HCT-116 = experiment: NCI screen cytotoxicity, colon HCT-116; format: cell-based; details: Homo sapiens, HCT-116, 48 h, read-out: cytotoxicity (GI50) colon HCT-116
SV40 DNA = experiment: DNA unwinding assay; format: biochemical; details: for ability to unwind/intercalate into free DNA: range of tested concentrations 1-100 μM
human recombinant Top1 = molecular target: T1, human recombinant Top1 (Homo sapiens, UniProt P11387); experiment: Top1-mediated DNA cleavage assay; format: biochemical; details: for Top1 cleavage: semiquantitative, relative Top1 inhibitory potency vs compounds 1 and 2, 117-bp DNA fragment; for concentration dependence of DNA cleavage band intensity: 0.1-100 μM, side-by-side comparison (Figure 4)
T1 sequence (P11387 1-765): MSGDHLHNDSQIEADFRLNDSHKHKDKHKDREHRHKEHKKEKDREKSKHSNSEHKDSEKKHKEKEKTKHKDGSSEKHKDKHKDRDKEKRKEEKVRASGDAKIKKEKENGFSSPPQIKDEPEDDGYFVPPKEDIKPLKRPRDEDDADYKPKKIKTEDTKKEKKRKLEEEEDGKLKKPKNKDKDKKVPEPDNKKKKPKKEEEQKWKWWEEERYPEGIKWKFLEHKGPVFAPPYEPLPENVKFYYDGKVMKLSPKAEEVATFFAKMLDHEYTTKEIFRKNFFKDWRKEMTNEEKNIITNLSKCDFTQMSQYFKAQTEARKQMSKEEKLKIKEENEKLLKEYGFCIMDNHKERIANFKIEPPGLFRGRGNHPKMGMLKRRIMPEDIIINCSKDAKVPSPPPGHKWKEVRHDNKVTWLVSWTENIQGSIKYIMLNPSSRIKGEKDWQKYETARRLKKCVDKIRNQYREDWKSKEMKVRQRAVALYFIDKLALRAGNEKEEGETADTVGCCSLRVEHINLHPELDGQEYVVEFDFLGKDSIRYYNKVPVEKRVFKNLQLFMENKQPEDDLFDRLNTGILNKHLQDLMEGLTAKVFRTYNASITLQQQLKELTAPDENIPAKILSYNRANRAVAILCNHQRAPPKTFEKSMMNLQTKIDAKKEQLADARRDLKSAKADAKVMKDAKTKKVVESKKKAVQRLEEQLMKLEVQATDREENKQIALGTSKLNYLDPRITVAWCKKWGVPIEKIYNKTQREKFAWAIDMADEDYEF

[1] = system: all human cancer cell lines successfully tested; experiment: NCI screen, mean graph midpoint; format: cell-based; details: 48 h, read-out: cytotoxicity (GI50) MGM

| SMILES | Top1 cleavage (human recombinant Top1) | GI50 [1] [µM] | also measured |
| --- | --- | --- | --- |
| CC[C@@]1(O)C(=O)OCc2c1cc1n(c2=O)Cc2cc3ccccc3nc2-1 [Compound 1, camptothecin] | – | – | GI50 (melanoma UACC-62): 0.01 µM; GI50 (prostate DU-145): 0.01 µM; GI50 (lung HOP-62): 0.01 µM; GI50 (renal SN12C): 0.02 µM; GI50 (colon HCT-116): 0.03 µM |
| O=C1c2cccnc2-c2[nH]c(=O)c3cc([N+](=O)[O-])ccc3c21 [Compound 17, 7-Aza-5,6-dihydro-3-nitro-5,11-dioxo-11H-indeno[1,2-c]isoquinoline] | – | – | ability to unwind/intercalate into free DNA (SV40 DNA): allow intercalation into DNA in the absence of Top1 |
| CN(C)CCCn1c2c(c3ccccc3c1=O)C(=O)c1cccnc1-2 [Compound 18, 7-Aza-5,6-dihydro-6-(3-dimethylaminopropyl)-5,11-dioxo-11H-indeno[1,2-c]isoquinoline Hydrochloride] | +++ | 1.78 | – |
| COc1cc2c3c(n(CCCN(C)C)c(=O)c2cc1OC)-c1ncccc1C3=O [Compound 19, 7-Aza-5,6-dihydro-6-(3-dimethylaminopropyl)-2,3-dimethoxy-5,11-dioxo-11H-indeno[1,2-c]isoquinoline Hydrochloride] | +++ | 4.5 | inhibition of Top1-mediated DNA relaxation (SV40 DNA; at highest tested concentration, 100 μM): completely inhibits the Top1-mediated DNA relaxation |
| CN(C)CCCn1c2c(c3ccc([N+](=O)[O-])cc3c1=O)C(=O)c1cccnc1-2 [Compound 20, 7-Aza-5,6-dihydro-6-(3-dimethylaminopropyl)-3-nitro-5,11-dioxo-11H-indeno[1,2-c]isoquinoline Hydrochloride] | – | 1.86 | – |
| O=C1c2cccnc2-c2c1c1ccccc1c(=O)n2CCCN1CCOCC1 [Compound 21, 7-Aza-5,6-dihydro-6-(3-morpholinopropyl)-5,11-dioxo-11H-indeno[1,2-c]isoquinoline Hydrochloride] | – | 15.5 | – |
| COc1cc2c3c(n(CCCN4CCOCC4)c(=O)c2cc1OC)-c1ncccc1C3=O [Compound 22, 7-Aza-5,6-dihydro-6-(3-morpholinopropyl)-2,3-dimethoxy-5,11-dioxo-11H-indeno[1,2-c]isoquinoline Hydrochloride] | ++ | – | concentration dependence of DNA cleavage band intensity (human recombinant Top1): concentration-dependent increase of intensity of DNA cleavage bands; ability to unwind/intercalate into free DNA (SV40 DNA): inability to unwind/intercalate into DNA |
| COc1cc2c3c(n(CCCNCCO)c(=O)c2cc1OC)-c1ncccc1C3=O [Compound 31, 7-Aza-5,6-dihydro-6-(3-(2-hydroxyethylamino)propyl)-2,3-dimethoxy-5,11-dioxo-11H-indeno[1,2-c]isoquinoline Hydrochloride] | – | 0.29 | concentration dependence of DNA cleavage band intensity (human recombinant Top1): behave similarly to 19 |
| COc1cc2c3c(n(CCCN)c(=O)c2cc1OC)-c1ncccc1C3=O [Compound 32, 7-Aza-5,6-dihydro-6-(3-aminopropyl)-2,3-dimethoxy-5,11-dioxo-11H-indeno[1,2-c]isoquinoline Hydrochloride] | – | 2.09 | concentration dependence of DNA cleavage band intensity (human recombinant Top1): behave similarly to 19 |

Second part, led by results:

| Top1 cleavage (human recombinant Top1) | SMILES | GI50 [1] [µM] | also measured |
| --- | --- | --- | --- |
| +++ | O=C1c2cccnc2-c2c1c1ccc([N+](=O)[O-])cc1c(=O)n2CCCN1CCOCC1 [Compound 23, 7-Aza-5,6-dihydro-6-(3-morpholinopropyl)-3-nitro-5,11-dioxo-11H-indeno[1,2-c]isoquinoline Hydrochloride] | – | – |
| ++ | O=C1c2cccnc2-c2c1c1ccccc1c(=O)n2CCCn1ccnc1 [Compound 28, 7-Aza-5,6-dihydro-6-(3-(1H-imidazol-1-yl)propyl)-5,11-dioxo-11H-indeno[1,2-c]isoquinoline] | – | – |
| ++ | COc1cc2c3c(n(CCCn4ccnc4)c(=O)c2cc1OC)-c1ncccc1C3=O [Compound 29, 7-Aza-5,6-dihydro-6-(3-(1H-imidazol-1-yl)propyl)-2,3-dimethoxy-5,11-dioxo-11H-indeno[1,2-c]isoquinoline] | – | concentration dependence of DNA cleavage band intensity (human recombinant Top1): concentration-dependent increase of intensity of DNA cleavage bands |
| + | O=C1c2cccnc2-c2c1c1ccccc1c(=O)n2CCCNCCO [Compound 30, 7-Aza-5,6-dihydro-6-(3-(2-hydroxyethylamino)propyl)-5,11-dioxo-11H-indeno[1,2-c]isoquinoline Hydrochloride] | 1.29 | – |
| +++ | CN(C)CCCn1c2c(c3ccccc3c1=O)C(=O)c1ccccc1-2 [Compound 33, reference compound] | – | – |
| +++ | CN(C)CCCn1c2c(c3ccc([N+](=O)[O-])cc3c1=O)C(=O)c1ccccc1-2 [Compound 35] | 9.77 | GI50 (melanoma UACC-62): 7.08 µM; GI50 (renal SN12C): 4.17 µM; GI50 (colon HCT-116): 6.46 µM |
